This assay deals with Plasmodium falciparum. Put plainly: Antiplasmodial activity against late-ring/early trophozoite intraerythrocytic stage of synchronized Plasmodium falciparum 3D7 after 72 hrs by LDH assay. The assay is classed as functional, organism-based. Conditions: 3D7, 72 h.

Usually IC50 stands for the midpoint of a concentration-inhibition curve. Read a low IC50 as greater potency. As for `Cc1cc2c(c(=O)[nH]1)C(=O)[C@]1(O)c3c(O)c4c(c5c3[C@@H](C[C@@H]1C2=O)OCO5)O[C@@H]1[C@H](O)C=CC[C@H]1C4=O`, the midpoint of inhibition, the IC50, lay at 9 nM.
